Results published in US11254686B1 (Corvus Pharmaceuticals, Inc., priority 2017, dated 2022).

Tests used:
[1] = target: adenosine A2A receptor (Homo sapiens (Human), UniProt P29274); assay: Adenosine receptor activity assay (Table 1), A2A activity; assay type: biochemical; conditions: read-out: Ave A2A cAMP IC50
[2] = target: adenosine A2B receptor (Homo sapiens (Human), UniProt P29275); assay: Adenosine receptor activity assay (Table 1), A2B activity; assay type: biochemical; conditions: for IC50: read-out: Ave A2B cAMP IC50
Sequence of adenosine A2B receptor (P29275 whole entry): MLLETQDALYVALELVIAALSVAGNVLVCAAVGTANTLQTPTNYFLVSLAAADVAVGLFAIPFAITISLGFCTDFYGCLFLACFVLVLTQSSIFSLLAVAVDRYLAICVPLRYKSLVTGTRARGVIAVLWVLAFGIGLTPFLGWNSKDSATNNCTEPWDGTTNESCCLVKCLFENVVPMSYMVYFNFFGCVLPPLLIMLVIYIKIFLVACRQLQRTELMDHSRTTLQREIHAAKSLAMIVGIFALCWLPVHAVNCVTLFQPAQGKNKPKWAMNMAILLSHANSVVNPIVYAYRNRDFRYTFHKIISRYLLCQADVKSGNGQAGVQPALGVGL

[3] = A2A activity to the A2B activity, A2A/A2B
[4] = A2A activity to A2B activity (A2A/A2B)

Sequence of adenosine A2A receptor (P29274 whole entry): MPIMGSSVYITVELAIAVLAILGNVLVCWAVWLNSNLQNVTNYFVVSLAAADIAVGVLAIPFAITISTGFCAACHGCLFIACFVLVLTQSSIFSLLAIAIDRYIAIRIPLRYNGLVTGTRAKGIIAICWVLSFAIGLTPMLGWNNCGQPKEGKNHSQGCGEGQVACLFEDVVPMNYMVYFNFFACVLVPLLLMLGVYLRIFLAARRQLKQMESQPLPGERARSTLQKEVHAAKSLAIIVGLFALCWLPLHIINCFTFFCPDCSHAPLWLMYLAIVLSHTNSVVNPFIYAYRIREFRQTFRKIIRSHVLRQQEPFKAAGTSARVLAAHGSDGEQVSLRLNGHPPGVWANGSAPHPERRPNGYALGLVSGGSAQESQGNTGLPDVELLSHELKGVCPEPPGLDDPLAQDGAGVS

| IC50 [1] | Ratio [2, 3] | IC50 [2] | Ratio [2, 4] | Structure (SMILES) |
| --- | --- | --- | --- | --- |
| 100 to 500 nM | 0.29 | > 500 nM | – | CCOc1ccc(CNc2nc(C(=O)NCCc3cccc(O)c3)c3sccc3n2)cn1 [Example Z439, 2-(((6-Ethoxypyridin-3-yl)methyl)amino)-N-(3-hydroxyphenethyl)thieno[3,2-d]pyrimidine-4-carboxamide] |
| > 500 nM | – | 100 to 500 nM | 2.08 | COc1cncc(CNc2nc(C(=O)N3CC(O)C3)c3sccc3n2)c1 [Example Z119, (3-Hydroxyazetidin-1-yl)(2-(((5-methoxypyridin-3-yl)methyl)amino)thieno[3,2-d]pyrimidin-4-yl)methanone] |
| > 500 nM | – | > 500 nM | 0.95 | O=C(NCc1cncnc1)c1nc(NCc2cncnc2)nc2ccsc12 [Example Z4, N-(Pyrimidin-5-ylmethyl)-2-((pyrimidin-5-ylmethyl)amino)thieno[3,2-d]pyrimidine-4-carboxamide] |
| 50 to 100 nM | – | 50 to 100 nM | 1.03 | COc1ccc(CNC(=O)c2nc(NCc3cccc(F)c3)nc3ccsc23)cn1 [Example Z82, 2-((3-Fluorobenzyl)amino)-N-((6-methoxypyridin-3-yl)methyl)thieno[3,2-d]pyrimidine-4-carboxamide] |
| 100 to 500 nM | 4.16 | 10 to 50 nM | – | Cc1cc2nc(N[C@@H](C)c3cncc(F)c3)nc(C(=O)N3CC(N(C)C(=O)OC(C)(C)C)C3)c2s1 [Example Z484, tert-Butyl (S)-(1-(2-((1-(5-fluoropyridin-3-yl)ethyl)amino)-6-methylthieno[3,2-d]pyrimidine-4-carbonyl)azetidin-3-yl)(methyl)carbamate] |
| > 500 nM | 0.91 | > 500 nM | – | COc1ncccc1CNC(=O)c1nc(N[C@@H](C)c2ccccn2)nc2ccsc12 [Example Z449, (S)—N-((2-Methoxypyridin-3-yl)methyl)-2-((1-(pyridin-2-yl)ethyl)amino)thieno[3,2-d]pyrimidine-4-carboxamide] |
| 100 to 500 nM | – | 100 to 500 nM | 0.40 | O=C(NCc1ccccc1)c1nc(NCc2ccccc2)nc2ccsc12 [Example Z51, N-Benzyl-2-(benzylamino)thieno[3,2-d]pyrimidine-4-carboxamide] |
| 10 to 50 nM | 1.21 | 10 to 50 nM | – | CO[C@@H]1CCN(C(=O)c2nc(N[C@@H](C)c3ccccn3)nc3c(C)csc23)C1 [Example Z441, ((R)-3-Methoxypyrrolidin-1-yl)(7-methyl-2-(((S)-1-(pyridin-2-yl)ethyl)amino)thieno[3,2-d]pyrimidin-4-yl)methanone] |
| 100 to 500 nM | – | 10 to 50 nM | 17.59 | C[C@H](Nc1nc(C(=O)N2CC[C@@H](F)C2)c2sc(N)cc2n1)c1cccnc1 [Example Z195, (6-Amino-2-(((S)-1-(pyridin-3-yl)ethyl)amino)thieno[3,2-d]pyrimidin-4-yl)((R)-3-fluoropyrrolidin-1-yl)methanone] |
| > 500 nM | – | > 500 nM | 1.04 | O=C(NCCn1ccnc1)c1nc(NCc2cncc(F)c2)nc2ccsc12 [Example Z85, N-(2-(1H-Imidazol-1-yl)ethyl)-2-(((5-fluoropyridin-3-yl)methyl)amino)thieno[3,2-d]pyrimidine-4-carboxamide] |
| > 500 nM | – | 100 to 500 nM | 50.76 | Cc1cncc(CNc2nc(C(=O)N3CC[C@H](O)C3)c3sccc3n2)c1 [Example Z56, (S)-(3-Hydroxypyrrolidin-1-yl)(2-(((5-methylpyridin-3-yl)methyl)amino)thieno[3,2-d]pyrimidin-4-yl)methanone] |
| 100 to 500 nM | – | 100 to 500 nM | 3.76 | CC(C)(C)OC(=O)N1CC(NC(=O)c2nc(NCc3cncc(F)c3)nc3ccsc23)C1 [Example Z178, tert-Butyl 3-(2-(((5-fluoropyridin-3-yl)methyl)amino)thieno[3,2-d]pyrimidine-4-carboxamido)azetidine-1-carboxylate] |
| 100 to 500 nM | – | 10 to 50 nM | 7.89 | Cc1cc2nc(N[C@@H](C)c3cccnc3)nc(C(=O)NCC3CCOCC3)c2s1 [Example Z375, (S)-6-Methyl-2-((1-(pyridin-3-yl)ethyl)amino)-N-((tetrahydro-2H-pyran-4-yl)methyl)thieno[3,2-d]pyrimidine-4-carboxamide] |
| > 500 nM | – | 100 to 500 nM | 2.13 | COCC(Nc1nc(C(=O)N2CC[C@H](O)C2)c2sccc2n1)c1cccnc1 (stereo partly drawn) [Example Z124, ((S)-3-Hydroxypyrrolidin-1-yl)(2-((2-methoxy-1-(pyridin-3-yl)ethyl)amino)thieno[3,2-d]pyrimidin-4-yl)methanone] |
| > 500 nM | – | < 10 nM | 196.86 | CC(=O)N[C@H]1CCN(C(=O)c2nc(NCc3cncc(F)c3)nc3ccsc23)C1 [Example Z330, (S)—N-(1-(2-(((5-Fluoropyridin-3-yl)methyl)amino)thieno[3,2-d]pyrimidine-4-carbonyl)pyrrolidin-3-yl)acetamide] |
| > 500 nM | – | 10 to 50 nM | 27.81 | O=C(c1nc(NC(CO)c2cccnc2)nc2ccsc12)N1CCCC1 (stereo not drawn) [Example Z270, (2-((2-Hydroxy-1-(pyridin-3-yl)ethyl)amino)thieno[3,2-d]pyrimidin-4-yl)(pyrrolidin-1-yl)methanone] |
| > 500 nM | – | > 500 nM | 3.03 | C[C@H](Nc1nc(C(=O)NCCN2CCCC2)c2sccc2n1)c1cncc(F)c1 [Example Z357, (S)-2-((1-(5-Fluoropyridin-3-yl)ethyl)amino)-N-(2-(pyrrolidin-1-yl)ethyl)thieno[3,2-d]pyrimidine-4-carboxamide] |
| 100 to 500 nM | – | 100 to 500 nM | 2.24 | C[C@H](Nc1nc(C(=O)NCc2cncc(C#N)c2)c2sccc2n1)c1ccccn1 [Example Z102, (S)—N-((5-Cyanopyridin-3-yl)methyl)-2-((1-(pyridin-2-yl)ethyl)amino)thieno[3,2-d]pyrimidine-4-carboxamide] |
| > 500 nM | – | 100 to 500 nM | 7.09 | CC(C)(Nc1nc(C(=O)N2CCCC2)c2sccc2n1)c1cccnc1 [Example Z112, (2-((2-(Pyridin-3-yl)propan-2-yl)amino)thieno[3,2-d]pyrimidin-4-yl)(pyrrolidin-1-yl)methanone] |
| > 500 nM | 84.36 | 10 to 50 nM | – | COC[C@H]1CCN1C(=O)c1nc(N[C@@H](C)c2cncc(F)c2)nc2cc(C)sc12 [Example Z570, (2-(((S)-1-(5-Fluoropyridin-3-yl)ethyl)amino)-6-methylthieno[3,2-d]pyrimidin-4-yl)((R)-2-(methoxymethyl)azetidin-1-yl)methanone] |
| > 500 nM | 8.68 | > 500 nM | – | Cc1cc2nc(N[C@@H](C)c3cccnc3)nc(C(=O)NCC[C@H]3CCNC3)c2s1 [Example Z501, 6-Methyl-2-(((S)-1-(pyridin-3-yl)ethyl)amino)-N-(2-((R)-pyrrolidin-3-yl)ethyl)thieno[3,2-d]pyrimidine-4-carboxamide] |
| 100 to 500 nM | 0.84 | 100 to 500 nM | – | CCNC(=O)c1nc(NCCc2ccc(O)cc2)nc2ccsc12 [Example Z460, N-Ethyl-2-((4-hydroxyphenethyl)amino)thieno[3,2-d]pyrimidine-4-carboxamide] |
| 100 to 500 nM | 1.91 | 100 to 500 nM | – | CO[C@H]1CCN(C(=O)c2nc(N[C@@H](C)c3ccccn3)nc3c(C)csc23)C1 [Example Z440, ((S)-3-Methoxypyrrolidin-1-yl)(7-methyl-2-(((S)-1-(pyridin-2-yl)ethyl)amino)thieno[3,2-d]pyrimidin-4-yl)methanone] |
| 100 to 500 nM | – | 50 to 100 nM | 5.92 | C[C@H](CO)NC(=O)c1nc(N[C@@H](C)c2ccccn2)nc2ccsc12 [Example Z182, N—((R)-1-Hydroxypropan-2-yl)-2-(((S)-1-(pyridin-2-yl)ethyl)amino)thieno[3,2-d]pyrimidine-4-carboxamide] |
| > 500 nM | – | 100 to 500 nM | 15.93 | Cc1cc2nc(N[C@@H](C)c3cccnc3)nc(C(=O)NCCN3CCOCC3)c2s1 [Example Z378, (S)-6-Methyl-N-(2-morpholinoethyl)-2-((1-(pyridin-3-yl)ethyl)amino)thieno[3,2-d]pyrimidine-4-carboxamide] |
| > 500 nM | – | 50 to 100 nM | 12.97 | O=C(c1nc(NCc2cccc(F)n2)nc2ccsc12)N1CCCC1 [Example Z71, (2-(((6-Fluoropyridin-2-yl)methyl)amino)thieno[3,2-d]pyrimidin-4-yl)(pyrrolidin-1-yl)methanone] |
| 50 to 100 nM | – | 50 to 100 nM | 0.67 | C[C@H](Nc1nc(C(=O)N2CC[C@H](NC(=O)OC(C)(C)C)C2)c2sccc2n1)c1ccccn1 [Example Z315, tert-Butyl ((S)-1-(2-(((S)-1-(pyridin-2-yl)ethyl)amino)thieno[3,2-d]pyrimidine-4-carbonyl)pyrrolidin-3-yl)carbamate] |
| > 500 nM | – | > 500 nM | 2.15 | O=C(c1nc(NCCn2ccnc2)nc2ccsc12)N1CCCC1 [Example Z273, (2-((2-(1H-Imidazol-1-yl)ethyl)amino)thieno[3,2-d]pyrimidin-4-yl)(pyrrolidin-1-yl)methanone] |
| > 500 nM | – | > 500 nM | 5.63 | CCC(NC(=O)c1nc(NC(CC)c2cccnc2)nc2ccsc12)c1cccnc1 (stereo not drawn) [Example Z23, N-(1-(Pyridin-3-yl)propyl)-2-((1-(pyridin-3-yl)propyl)amino)thieno[3,2-d]pyrimidine-4-carboxamide] |
| > 500 nM | – | 50 to 100 nM | 10.89 | O=C(c1nc(NCc2cccc(O)n2)nc2ccsc12)N1CCCC1 [Example Z70, (2-(((6-Hydroxypyridin-2-yl)methyl)amino)thieno[3,2-d]pyrimidin-4-yl)(pyrrolidin-1-yl)methanone] |
